Results taken from US20110092423A1, “INHIBITORS OF Akt ACTIVITY” (GlaxoSmithKline, LLC, priority 2008, published 2011).

Biological target: T1, full length AKT1 (Homo sapiens, UniProt P31749)
T1 construct: Full-length human AKT1 gene was amplified by PCR; His tag (from vector pFastbacHTb; purified on Nickel Sepharose) (N); made in house; host or cells: baculovirus; Sf9 / T. ni insect cells
Experiment: Full-length AKT enzyme assay (substrate phosphorylation, SPA)
Assay type: biochemical
Details: in at least one experimental run; pIC50 = -log(IC50), IC50 in molar units; 4 uM ATP, 10 nM enzyme; read-out: pIC50 value against full length AKT1 (converted)
Description: Cloning of Full-Length Human (FL) AKT1:
Full-length human AKT1 gene was amplified by PCR from a plasmid containing myristylated-AKT1-ER (gift from Robert T. Abraham, Duke University under MTA, described in Klippel et al. in Molecular and Cellular Biology 1998 Volume 18 p. 5699) using the 5′ primer: SEQ. ID NO: 2 5′ […] 3′ and the 3′ primer: SEQ. ID NO: 3 […] 3′. The 5′ primer included a BamHI site and the 3′ primer included an XhoI site for cloning purposes. The resultant PCR product was subcloned in pcDNA3 as a BamHI/XhoI fragment. […]
Compounds of the present invention were tested for AKT 1, 2, and 3 protein serine kinase inhibitory activity in substrate phosphorylation assays. […] Substrate phosphorylation was detected by the following procedure.
Assays were performed in 384 well U-bottom white plates. […] The reaction was stopped by the addition of 50 ul SPA bead mix (Dulbecco's PBS without Mg^2+ and Ca^2+, 0.1% Triton X-100, 5 mM EDTA, 50 uM ATP, 2.5 mg/ml Streptavidin-coated SPA beads.) The plate was sealed, the beads were allowed to settle overnight, and then the plate was counted in a Packard Topcount Microplate Scintillation Counter (Packard Instrument Co., Meriden, Conn.). […]

T1 sequence (P31749 whole entry): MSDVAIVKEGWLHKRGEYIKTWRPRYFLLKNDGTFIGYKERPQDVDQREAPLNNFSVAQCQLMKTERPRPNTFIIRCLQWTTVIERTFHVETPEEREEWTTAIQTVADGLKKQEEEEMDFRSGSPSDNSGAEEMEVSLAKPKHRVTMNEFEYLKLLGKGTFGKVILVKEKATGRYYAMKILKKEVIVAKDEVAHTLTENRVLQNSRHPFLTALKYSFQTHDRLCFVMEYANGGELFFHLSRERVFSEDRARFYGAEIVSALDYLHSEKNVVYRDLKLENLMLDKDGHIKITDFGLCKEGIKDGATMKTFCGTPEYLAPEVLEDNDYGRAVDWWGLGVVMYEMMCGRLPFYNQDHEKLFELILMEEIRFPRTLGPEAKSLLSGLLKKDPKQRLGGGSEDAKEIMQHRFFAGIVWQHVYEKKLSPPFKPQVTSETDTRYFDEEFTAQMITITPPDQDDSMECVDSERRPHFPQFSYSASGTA

- IC50: 10 nM
SMILES: Cn1ncc(Cl)c1-c1ncc(C(=O)N[C@H](CN)Cc2cccc(F)c2)s1 [Example 2, N-{(1S)-2-amino-1-[(3-fluorophenyl)methyl]ethyl}-2-(4-chloro-1-methyl-1H-pyrazol-5-yl)-1,3-thiazole-5-carboxamide]
